From a melting point compilation (Tetko et al.; mined from patent text by program, amines drawn as free bases though some values may be those of a salt)

Structure (SMILES)	melting point [°C]
CN=C(NC#N)NCCSCc1ccc(CNC)o1	81 to 85
O=c1c(O)cn(-c2cccc(C(F)(F)F)c2)nc1-c1ccnn1-c1ccccc1	246 to 248
CCN(C(=O)OCc1ccccc1)c1cc(Cl)c2c(c1)C(c1ccccc1F)=NC(C)(C)C(=O)N2C	150 to 151
CCCOC(=O)c1c(C)nc2cc(OC)c(OC)cc2c1-c1ccc(OC)c(OC)c1	153 to 155
ON=C(c1cccc2nc(N[C@@H]3CCc4ccccc43)ccc12)C1CC1	151
Cc1cc(C)c2cc(C3CCNC(C)C3)sc2c1 (stereo not drawn)	52 to 57
Nc1ncnc2c1ncn2[C@@H]1O[C@H](CSCCO)[C@@H](O)[C@H]1O	198 to 201
O=C(SCCCN1C(=O)NCC1c1ccccc1)c1ccccc1 (stereo not drawn)	112 to 115
NS(=O)(=O)c1cccc(NC(=O)c2cnn3c(C(F)(F)F)cc(-c4ccc(C(F)(F)F)c(Cl)c4)nc23)c1	287
COc1ccc(OC2OC(COCc3ccccc3)C(OCc3ccccc3)C(O)C2OCc2ccccc2)cc1 (stereo not drawn)	84 to 86
COC(=O)C1=Cc2cc(-c3ccc(C(F)(F)F)cc3)ccc2S(=O)(=O)CC1	168 to 170
Cc1ccc(C)c(-c2cccc3c2OC(CN)C3)c1 (stereo not drawn)	> 225
COc1ccc(-c2cc3cc(F)c(F)cc3[nH]2)cc1NCc1cccc([N+](=O)[O-])c1	212 to 214
C=CCNc1nnc(-c2ccc(F)c(F)c2Nc2ccc(CC)cc2F)o1	120 to 123
CCOC(=O)CC(NCCCN(C)C)C(=O)O (stereo not drawn)	168 to 169
COCCc1sc2ncnc(N)c2c1-c1ccc(NC(=O)Cc2cccc(C)c2)cc1	200 to 202
O=C(O)C1=Cc2cc(CO)ccc2OC1CC(F)(F)F (stereo not drawn)	178 to 181
N#Cc1cc(-c2ccccc2)[nH]c1Sc1ccc2ccccc2c1	93 to 94.4

Now from value to compound:

melting point [°C]	Structure (SMILES)
89 to 91	COC(=O)c1cccc(-c2ncc(OCCN3CCOCC3)cn2)c1
135 to 144	Cc1ccsc1C(=O)N1CCC(Sc2ccc(CCNC[C@H](O)COc3ccc(O)cc3)cc2)CC1
178 to 180	CC(=O)N1CCC(C(C)(O)c2ccc(Cl)cc2)CC1 (stereo not drawn)
234 to 235	CCN1C(=O)C(=C2C=C(N3CCCC3)CC(C)(C)C2)SC1=S
150 to 156	CCc1nn(C2CN(C(C)C)C2)c(C(N)=O)c1N
144 to 145	CC1CC(=O)c2cc([N+](=O)[O-])ccc2O1 (stereo not drawn)
201 to 202	Cc1ccc(-c2ccc3c(c2)C=C(C(=O)Nc2ccc(CCN4CCCCC4)cc2)CCO3)cc1
200 to 201	O=c1c2cnc3cc4c(cc3c2sn1CCc1ccccn1)OCO4
246 to 247	CCCn1c(=O)c2[nH]c(/C=C/c3ccc(OC)c(OC)c3OC)nc2n(CCC)c1=O
135 to 136	CCCc1nn(-c2ccc(C(F)(F)F)cn2)cc1CCCOc1c(CC)cnn1CC(=O)O
232 to 233	C=C(C)Cn1c(=O)n(C)c(=O)c2c[nH]nc21
56	COc1ccc(CNc2ncc3c(n2)N(c2ccccc2)C(=O)N(c2c(Cl)cccc2Cl)C3)cc1
218 to 220	O=C(CO)N1CCN(c2ccc(Nc3cc(-c4cnc5cc[nH]c5c4)cn4ccnc34)nc2)CC1
173 to 175	CC1CCN(c2ccccc2C(C)C(C(N)=O)c2ccc(C(=O)O)cc2)CC1 (stereo not drawn)
98 to 99	CN(C)OC(=O)C(C)(c1ccc(OCc2ccc3ccccc3n2)cc1)C1CCCCC1 (stereo not drawn)
301 to 302	Cn1c(C(=O)O)cc2c3c(c(-c4ccccc4Cl)cc21)C(=O)NC3=O
> 280	Cn1cnc(-c2ccc(NC(=C3C(=O)Oc4ccccc43)c3ccc(C(C)(C)N)cc3)cc2)c1
127 to 133	O=C(CCCN1CCOCC1)Nc1cccc(-c2ccnc3c(C(=O)c4cccs4)cnn23)c1
214 to 217	Cc1ccc2cc(C(=O)NC3(C(=O)O)CCCC3)sc2c1
200 to 201	CC(=O)C1=CCC2C3CCC4=CC(=O)CCC4(C)C3=CCC12C (stereo not drawn)
